Where “and” joins values, the source holds several entries; their conditions need not be identical. Identical values can stand only once. Inconclusive results and toxic doses are left out. How the source made its calls: active means survival T/C of 150% or more; inactive means T/C below 125% in these data.
Test system: CD2F1 mice, L1210 leukemia ip, survival T/C
Experiment: NCI In Vivo Anticancer Drug Screen. Data for tumor model L1210 Leukemia (intraperitoneal) in CD2F1 (CDF1) mice
Conditions: higher = longer survival
Procedure, shortened: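 Ratio T/C, where T is the treated-group value and C the vehicle-dosed control value, from mice implanted with a transplantable tumor.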

[1] = endpoint: mean survival time, dose: 12.5 mg/kg/injection, schedule: Q01DX001 (ip), vehicle: saline with Tween-80
[2] = endpoint: mean survival time, dose: 25.0 mg/kg/injection, schedule: Q01DX001 (ip), vehicle: saline with Tween-80
[3] = endpoint: mean survival time, dose: 100.0 mg/kg/injection, schedule: Q04DX003 (ip), vehicle: saline with Tween-80
[4] = endpoint: mean survival time, dose: 100.0 mg/kg/injection, schedule: Q01DX009 (ip), vehicle: saline with Tween-80
[5] = endpoint: mean survival time, dose: 200.0 mg/kg/injection, schedule: Q01DX009 (ip), vehicle: saline with Tween-80
[6] = endpoint: mean survival time, dose: 400.0 mg/kg/injection, schedule: Q01DX009 (ip), vehicle: saline with Tween-80
[7] = endpoint: mean survival time, dose: 200.0 mg/kg/injection, schedule: Q01DX001 (ip), vehicle: Klucel (hydroxypropylcellulose) (HPC)
[8] = endpoint: mean survival time, dose: 200.0 mg/kg/injection, schedule: Q04DX003 (ip), vehicle: saline with Tween-80
[9] = endpoint: mean survival time, dose: 400.0 mg/kg/injection, schedule: Q04DX003 (ip), vehicle: saline with Tween-80
[10] = endpoint: mean survival time, dose: 100.0 mg/kg/injection, schedule: Q01DX009 (ip), vehicle: saline
[11] = endpoint: mean survival time, dose: 200.0 mg/kg/injection, schedule: Q01DX009 (ip), vehicle: saline
[12] = endpoint: mean survival time, dose: 400.0 mg/kg/injection, schedule: Q01DX009 (ip), vehicle: saline

Measured: T/C

O=C/C=C/C=C/C=C/c1ccccc1
inactive: endpoint: mean survival time, dose: 62.5 mg/kg/injection, schedule: Q01DX001 (ip), vehicle: distilled water + alcohol 93 % of control | endpoint: mean survival time, dose: 125.0 mg/kg/injection, schedule: Q01DX001 (ip), vehicle: distilled water + alcohol 96 % of control | endpoint: mean survival time, dose: 250.0 mg/kg/injection, schedule: Q01DX001 (ip), vehicle: distilled water + alcohol 92 % of control | endpoint: mean survival time, dose: 500.0 mg/kg/injection, schedule: Q01DX001 (ip), vehicle: distilled water + alcohol 90 % of control | endpoint: median survival time, dose: 50.0 mg/kg/injection, schedule: Q01DX009 (ip), vehicle: saline 98 % of control | endpoint: median survival time, dose: 100.0 mg/kg/injection, schedule: Q01DX009 (ip), vehicle: saline 106 % of control | endpoint: median survival time, dose: 200.0 mg/kg/injection, schedule: Q01DX009 (ip), vehicle: saline 100 % of control | endpoint: median survival time, dose: 400.0 mg/kg/injection, schedule: Q01DX009 (ip), vehicle: saline 101 % of control | endpoint: median survival time, dose: 800.0 mg/kg/injection, schedule: Q01DX009 (ip), vehicle: saline 100 % of control

CC(C)CN1C(=O)C2C3CCC(O3)C2C1=O (centres undefined)
inactive: endpoint: mean survival time, dose: 100.0 mg/kg/injection, schedule: Q04DX002 (ip), vehicle: saline with Tween-80 95 % of control | endpoint: mean survival time, dose: 200.0 mg/kg/injection, schedule: Q04DX002 (ip), vehicle: saline with Tween-80 91 % of control | endpoint: mean survival time, dose: 400.0 mg/kg/injection, schedule: Q04DX002 (ip), vehicle: saline with Tween-80 102 % of control

NC1CCCCC(O)CCCC1 (centres undefined)
inactive: [1] 95 % of control | [2] 92 % of control | endpoint: mean survival time, dose: 50.0 mg/kg/injection, schedule: Q01DX001 (ip), vehicle: saline with Tween-80 97 % of control

CC(=O)NC1CC(n2cnc3c(=O)[nH]c(N)nc32)OC1C(C)O (centres undefined)
inactive: endpoint: median survival time, dose: 12.5 mg/kg/injection, schedule: Q01DX005 (ip), vehicle: distilled water + Tween-80 101 % of control | endpoint: median survival time, dose: 25.0 mg/kg/injection, schedule: Q01DX005 (ip), vehicle: distilled water + Tween-80 102 % of control | endpoint: median survival time, dose: 50.0 mg/kg/injection, schedule: Q01DX005 (ip), vehicle: distilled water + Tween-80 100 % of control | endpoint: median survival time, dose: 100.0 mg/kg/injection, schedule: Q01DX005 (ip), vehicle: distilled water + Tween-80 89 % of control

O=C(Cc1ccccc1)C(Br)C(Br)c1ccccc1 (centres undefined)
inactive: endpoint: mean survival time, dose: 25.0 mg/kg/injection, schedule: Q01DX009 (ip), vehicle: saline with Tween-80 107 % of control | [3] 92 % of control

O=c1cc(NCCCc2ccccc2)[nH]c(=O)[nH]1
inactive: endpoint: mean survival time, dose: 100.0 mg/kg/injection, schedule: Q01DX001 (ip), vehicle: saline with Tween-80 100 % of control | endpoint: mean survival time, dose: 200.0 mg/kg/injection, schedule: Q01DX001 (ip), vehicle: saline with Tween-80 92 % of control | endpoint: mean survival time, dose: 400.0 mg/kg/injection, schedule: Q01DX001 (ip), vehicle: saline with Tween-80 93 % of control

N#CCC(C#N)C1C=CCC1 (centres undefined)
inactive: endpoint: mean survival time, dose: 3.13 mg/kg/injection, schedule: Q04DX003 (ip), vehicle: saline 98 % of control | endpoint: mean survival time, dose: 6.25 mg/kg/injection, schedule: Q04DX003 (ip), vehicle: saline 101 % of control

COC(=O)C(Br)C(OC)c1ccc(Cl)cc1 (centres undefined)
inactive: [4] 101 % of control | endpoint: mean survival time, dose: 100.0 mg/kg/injection, schedule: Q04DX003 (ip), vehicle: saline sonified 100 % of control | [5] 95 % of control | endpoint: mean survival time, dose: 200.0 mg/kg/injection, schedule: Q04DX003 (ip), vehicle: saline sonified 101 % of control | [6] 97 % of control | endpoint: mean survival time, dose: 400.0 mg/kg/injection, schedule: Q04DX003 (ip), vehicle: saline sonified 95 % of control

O=[N+]([O-])c1cc[n+]([O-])cc1
inactive: endpoint: mean survival time, dose: 75.0 mg/kg/injection, schedule: Q01DX001 (ip), vehicle: saline 106 % of control

CCOC(=O)Nc1cc2c(c(N)n1)N=C(CCc1ccccc1)CN2
inactive: endpoint: mean survival time, dose: 25.0 mg/kg/injection, schedule: Q01DX001 (ip), vehicle: Klucel (hydroxypropylcellulose) (HPC) 107 % of control | endpoint: mean survival time, dose: 50.0 mg/kg/injection, schedule: Q01DX001 (ip), vehicle: Klucel (hydroxypropylcellulose) (HPC) 114 % of control | [7] 116 % of control

O=C(OCC(OC(=O)c1ccccc1)C1OC(c2ccccc2)OC1C(COC(=O)c1ccccc1)OC(=O)c1ccccc1)c1ccccc1 (centres undefined)
inactive: [3] 97 % of control | [8] 101 % of control | [9] 97 % of control

CC(=O)Nc1ccc(/C=N/NC(=O)CNC(=O)Nc2ccc(Cl)c(Cl)c2)cc1
inactive: [4] 95 % of control | [5] 100 % of control | [6] 109 % of control

COc1cc(C)cc(N)n1
inactive: endpoint: mean survival time, dose: 6.25 mg/kg/injection, schedule: Q01DX001 (ip), vehicle: saline with Tween-80 89 % of control | [1] 92 % of control | [2] 89 % of control

O=C(c1ccccc1)C1CCCCC1
inactive: [10] 88 % of control | [11] 97 % of control | [12] 92 % of control

O=C(O)C(O)C(O)C(O)C(O)CO.[Mn] (centres undefined)
inactive: endpoint: mean survival time, dose: 50.0 mg/kg/injection, schedule: Q01DX009 (ip), vehicle: saline with Tween-80 106 % of control | endpoint: mean survival time, dose: 50.0 mg/kg/injection, schedule: Q04DX003 (ip), vehicle: saline with Tween-80 100 % of control | [4] 107 % of control | [3] 102 % of control | [5] 118 % of control | [8] 104 % of control

O=C(O)c1ccc(C(=O)O)c(C(=O)O)c1.[NH-]Cc1ccccc1C[NH-].[Pt+2]
inactive: endpoint: mean survival time, dose: 5.0 mg/kg/injection, schedule: Q04DX003 (ip), vehicle: sodium bicarbonate 110 % of control | endpoint: mean survival time, dose: 10.0 mg/kg/injection, schedule: Q04DX003 (ip), vehicle: sodium bicarbonate 110 % of control | endpoint: mean survival time, dose: 20.0 mg/kg/injection, schedule: Q04DX003 (ip), vehicle: sodium bicarbonate 108 % of control | endpoint: mean survival time, dose: 40.0 mg/kg/injection, schedule: Q04DX003 (ip), vehicle: sodium bicarbonate 108 % of control | endpoint: mean survival time, dose: 80.0 mg/kg/injection, schedule: Q04DX003 (ip), vehicle: sodium bicarbonate 96 % of control

Clc1ccc(/C=N/N=C/c2ccc(Cl)cc2Cl)c(Cl)c1
inactive: endpoint: mean survival time, dose: 100.0 mg/kg/injection, schedule: Q01DX001 (ip), vehicle: Klucel (hydroxypropylcellulose) (HPC) 95 % of control | [7] 89 % of control | endpoint: mean survival time, dose: 400.0 mg/kg/injection, schedule: Q01DX001 (ip), vehicle: Klucel (hydroxypropylcellulose) (HPC) 103 % of control

CCCOC(=O)C(C(=O)OCCC)(C(=O)OCCC)C(=O)OCCC
inactive: endpoint: mean survival time, dose: 100.0 mg/kg/injection, schedule: Q01DX001 (ip), vehicle: saline 96 % of control | endpoint: mean survival time, dose: 200.0 mg/kg/injection, schedule: Q01DX001 (ip), vehicle: saline 107 % of control | endpoint: mean survival time, dose: 400.0 mg/kg/injection, schedule: Q01DX001 (ip), vehicle: saline 93 % of control

CC(=O)CCCSCCO
inactive: endpoint: mean survival time, dose: 100.0 mg/kg/injection, schedule: Q04DX003 (ip), vehicle: saline 101 % of control | endpoint: mean survival time, dose: 200.0 mg/kg/injection, schedule: Q04DX003 (ip), vehicle: saline 97 % of control | endpoint: mean survival time, dose: 400.0 mg/kg/injection, schedule: Q04DX003 (ip), vehicle: saline 101 % of control

C[Si](C)(C)O/C=C1/CCOC1=O
inactive: endpoint: mean survival time, dose: 12.5 mg/kg/injection, schedule: Q01DX009 (ip), vehicle: saline 97 % of control and 107 % of control | endpoint: mean survival time, dose: 25.0 mg/kg/injection, schedule: Q01DX009 (ip), vehicle: saline 106 % of control and 108 % of control | endpoint: mean survival time, dose: 50.0 mg/kg/injection, schedule: Q01DX009 (ip), vehicle: saline 103 % of control and 104 % of control | [10] 104 % of control and 106 % of control | [11] 105 % of control and 112 % of control | [12] 113 % of control and 112 % of control

CCOP(OCC)SSCn1nc2ccc3ccccc3n2c1=O
inactive: endpoint: mean survival time, dose: 12.5 mg/kg/injection, schedule: Q01DX009 (ip), vehicle: Klucel (hydroxypropylcellulose) (HPC) 100 % of control | endpoint: mean survival time, dose: 25.5 mg/kg/injection, schedule: Q01DX009 (ip), vehicle: Klucel (hydroxypropylcellulose) (HPC) 95 % of control | endpoint: mean survival time, dose: 50.0 mg/kg/injection, schedule: Q01DX009 (ip), vehicle: Klucel (hydroxypropylcellulose) (HPC) 113 % of control

Cc1oc([N+](=O)[O-])cc1C(=O)O
inactive: [3] 102 % of control | [8] 102 % of control | [9] 115 % of control

Fc1c(F)c(F)[c]([Ge]([c]2c(F)c(F)c(F)c(F)c2F)([c]2c(F)c(F)c(F)c(F)c2F)[c]2c(F)c(F)c(F)c(F)c2F)c(F)c1F
inactive: [4] 97 % of control | [3] 86 % of control | [5] 92 % of control | [8] 91 % of control | [6] 91 % of control | [9] 93 % of control

Nc1ccc(S(=O)(=O)Nc2ccccc2C(=O)O)cc1
inactive: endpoint: mean survival time, dose: 37.5 mg/kg/injection, schedule: Q01DX001 (ip), vehicle: saline with Tween-80 102 % of control | endpoint: mean survival time, dose: 75.0 mg/kg/injection, schedule: Q01DX001 (ip), vehicle: saline with Tween-80 101 % of control | endpoint: mean survival time, dose: 150.0 mg/kg/injection, schedule: Q01DX001 (ip), vehicle: saline with Tween-80 95 % of control
